Values joined by “and” are separate entries in the source; they are usually repeats but may differ in a detail not shown here. Equal entries are not always repeated. One block for each molecule: values may come before it.
What was measured:
[1] = tested on: CD16a negative THP1 cells; test: ADCP assay using THP-1 cells; assay type: cell-based; conditions: beads loaded with test compound at 50 uM; 37C for 18 hrs
Protocol: (§1) Biotinylated fluorescent beads (Invitrogen, cat #P35372) were thoroughly mixed by vortexing for 1 min. Ten microliters of supplied bead suspension per treatment type were dispensed in Eppendorf tubes, and washed with 1 ml PBS […], then re-suspended in 500 uL of 1% BSA in PBS. Test compounds were added to bead suspensions to a final concentration of 50 uM, and biotinylated human IgG whole molecule (Rockland 009-0602) final concentration of 20 ug/mL.
(§2) Tubes were incubated at room temperature for 1 hr on a rocking platform.
(§3) Following incubation, beads were pelleted in a microcentrifuge at 12,000 g for 5 minutes at room temperature. Supernatants were carefully aspirated and beads were washed 5 times by resuspending in 1 ml of PBS 1% BSA, and centrifuging as described above. Finally, beads were resuspended in 500 ul of PBS 1% BSA and used in ADCP assay.
(§4) Monocytes or THP-1 cells (TIB-202 ATCC) were seeded into 96 well round bottom 96 well plates at the density of 10^5 cells per well in 200 ul, and 10 uL of fluorescent bead suspension prepared as described above was added to each well. Well contents were mixed by pipetting up and down using a multichannel pipet, and plates were incubated at 37C for 18 hrs. After incubation, well contents were transferred into flat bottom black 96 well plates (Costar #3358) and centrifuged for 2 minutes at 300 g to allow for better visualization of the cells. Images were taken using Zoe fluorescent cell imager (Biorad).

[2] = molecular target: T1, CD16a158F (Homo sapiens, UniProt P08637); test: Biotinylated Ligand ELISA Assay; assay type: binding; parameters: purchased Acro Biosystems CDA-H82E8; conditions: Biotinylated CD16a protein at 10 nM
Summary of the method: (§5)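 Neutravidin-coated plates, BSA-blocked, loaded with biotinylated ligands 1 h at 25° C., free sites blocked with 100 μM biotin. Bound protein detected with streptavidin-HRP 1 h at 25° C. and chemiluminescent substrate for 5 min; luminescence read.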

[3] = tested on: primary monocytes; test: ADCP assay using fresh primary monocytes; assay type: cell-based, human; conditions: beads loaded with test compound at 50 uM; 37C for 18 hrs
Protocol: as §1, §2, §3
PBMC, freshly isolated from whole blood (Bioreclamation IVT0) using Ficoll-Paque density centrifugation were resuspended in serum-free, supplemented RPMI at 2×10^6 cells/mL.
Ten milliliters of the resulting cell suspension was seeded into 75-cm^2 tissue culture flask (Denville Scientific TC9341) and incubated 2-3 hr at 37° C. 5% CO2 to allow cell adhesion. Following incubation, media was decanted and surface of the flask was carefully washed twice, each time with 10 ml serum-free, supplemented RPMI to remove any residual non-adherent cells. To remove adherent cells, 10 mL of ice-cold 2.5 mM EDTA/PBS solution was added for 10 min on ice. Cells were transferred to a 15-ml conical tube and centrifuge 10 min at 300×g, room temperature, to remove the EDTA/PBS solution. Monocytes were then resuspended in RPMI 10% FCS at 5×10^5 cells/mL to be used in ADCP assay. Monocyte purity was assessed by staining cells with antibodies to human CD3 FITC (Biolegend 300306), CD19 PeCy7 (Biolegend 302216), CD14 BV421 (BD Biosciences, 565283), and CD16 (Biolegend 302046).
as §4

[4] = molecular target: T2, CD16a158V (Homo sapiens, UniProt P08637, F176V); test: Biotinylated Ligand ELISA Assay; assay type: binding; conditions: Biotinylated CD16a protein at 10 nM
Summary of the method: as §5

[5] = molecular target: T1, CD16a158F; test: Microscale Thermophoresis; assay type: binding; parameters: purchased Acro Biosystems CDA-H82E8; conditions: read-out: MST-CD16a158F KD
Protocol: (§6) Target proteins (poly-histidine tagged, 600 nM) were fluorescently labeled combination with an equal volume of dye (200 nM, His-Tag labeling kit RED-tris-NTA NanoTemper: MO-L008) PBST. The mixture rotated in the dark for 45 min before being spun down at 12000 rpm for 15 min to remove uncomplexed material. The fluorescence of the removed supernatant was adjusted to for a test concentration of 40-80 nM (2× the final measured). Test ligands were prepared across a 12-point dilution series in a 96-well PCR plate at a volume of 20 uL at 2× the concentration desired for testing (0.2% BSA in PBST). The dilution series was then combined with an equal volume of the labeled target at 2× the concentration desired for testing. Capillaries were added to the wells of the combined target/ligand complex and measured by MST. Measurements were taken using a Nanotemper Monolith NT.115, and the data was analyzed using NanoTemper MO.Control software.

[6] = molecular target: T2, CD16a158V; test: Microscale Thermophoresis; assay type: binding; conditions: read-out: MST-CD16a158V KD
Protocol: as §6

[7] = Biotin ELISA, No Protein (Example 55); assay type: binding; conditions: three replicate values per compound
Summary of the method: (§7)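 Plates are coated with neutravidin, blocked with BSA, loaded with biotinylated ligand, then capped with free biotin. Streptavidin-HRP and chemiluminescent substrate give the luminescence signal. Controls are antibody alone (stock) and antibody processed with DMSO in place of compound.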

[8] = molecular target: T3, CD32b (Homo sapiens, UniProt P31994); test: Biotin ELISA, interaction with various receptors (Example 55); assay type: binding; conditions: three replicate values per compound
T3 sequence (P31994 43-310): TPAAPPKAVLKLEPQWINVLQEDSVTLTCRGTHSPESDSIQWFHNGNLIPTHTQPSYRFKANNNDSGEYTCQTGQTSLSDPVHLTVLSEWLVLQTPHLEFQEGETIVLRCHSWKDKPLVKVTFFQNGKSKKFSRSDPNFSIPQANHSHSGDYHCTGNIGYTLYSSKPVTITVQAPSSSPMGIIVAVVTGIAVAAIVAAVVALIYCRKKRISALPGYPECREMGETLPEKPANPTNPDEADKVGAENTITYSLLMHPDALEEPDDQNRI
Summary of the method: as §7

[9] = molecular target: T1, CD16a158F; test: as above; assay type: binding; conditions: three replicate values per compound
Summary of the method: as §7

[10] = molecular target: T4, CD32a H167 (Homo sapiens, UniProt P12318); test: as above; assay type: binding; conditions: three replicate values per compound
T4 sequence (P12318 36-218 limits assumed): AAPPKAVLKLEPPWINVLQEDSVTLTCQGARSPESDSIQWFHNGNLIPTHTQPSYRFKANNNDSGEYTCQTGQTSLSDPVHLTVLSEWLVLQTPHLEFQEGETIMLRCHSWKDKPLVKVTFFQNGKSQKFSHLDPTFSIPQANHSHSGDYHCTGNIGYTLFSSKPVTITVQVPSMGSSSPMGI
Summary of the method: as §7

[11] = molecular target: CD64 (Homo sapiens, UniProt P12314); test: as above; assay type: binding; conditions: three replicate values per compound
Summary of the method: as §7

[12] = tested on: CD32a-R167; test: as above; assay type: binding; conditions: three replicate values per compound
Summary of the method: as §7

[13] = molecular target: CD3ed (Homo sapiens, UniProt P04234+P07766); test: as above; assay type: binding; conditions: three replicate values per compound
Summary of the method: as §7

[14] = molecular target: T2, CD16a158V; test: as above; assay type: binding; conditions: three replicate values per compound
Summary of the method: as §7

[15] = tested on: CD16a158V; test: CD16a-MATE ELISA; assay type: binding; conditions: Carbohydrate Conjugated MATEs; relative to Rituximab; Antibodies tested at 2 ug/mL
[16] = molecular target: T1, CD16a158F; test: CD16a-MATE ELISA; assay type: binding; parameters: purchased Acro Biosystems CDA-H82E8; conditions: Carbohydrate Conjugated MATEs; relative to Rituximab; Antibodies tested at 2 ug/mL

T1 sequence (P08637 17-208 limits assumed): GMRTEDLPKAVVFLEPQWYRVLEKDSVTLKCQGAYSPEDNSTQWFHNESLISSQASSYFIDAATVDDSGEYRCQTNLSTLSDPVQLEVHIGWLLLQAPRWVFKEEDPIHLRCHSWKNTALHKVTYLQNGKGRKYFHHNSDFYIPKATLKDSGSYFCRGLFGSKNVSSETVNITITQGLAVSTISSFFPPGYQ
CD64, sequence (P12314 16-374): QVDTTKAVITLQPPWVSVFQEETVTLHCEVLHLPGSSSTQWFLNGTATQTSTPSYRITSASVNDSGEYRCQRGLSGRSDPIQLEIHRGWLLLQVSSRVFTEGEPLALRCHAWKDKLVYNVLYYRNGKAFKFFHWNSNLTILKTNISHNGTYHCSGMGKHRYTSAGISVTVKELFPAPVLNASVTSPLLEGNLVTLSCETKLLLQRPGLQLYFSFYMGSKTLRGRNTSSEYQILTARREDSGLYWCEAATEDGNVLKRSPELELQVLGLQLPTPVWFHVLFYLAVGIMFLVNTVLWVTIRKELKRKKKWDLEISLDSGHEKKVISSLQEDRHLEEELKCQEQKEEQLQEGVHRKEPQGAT
CD3ed, sequence (P07766 23-126 limits assumed): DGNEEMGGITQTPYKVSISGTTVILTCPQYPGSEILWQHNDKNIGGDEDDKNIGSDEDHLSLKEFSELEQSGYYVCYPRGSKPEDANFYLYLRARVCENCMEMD
CD3ed, sequence (P04234 22-105 limits assumed): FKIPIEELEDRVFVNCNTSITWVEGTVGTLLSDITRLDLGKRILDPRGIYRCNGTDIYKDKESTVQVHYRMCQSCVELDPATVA
T2 sequence (P08637 17-208 F176V): as the sequence (P08637 17-208 limits assumed) above, with F160V counted along it

Kd [5]: 100 to 500 nM
Molecule: O=C(CCCC[C@@H]1SC[C@@H]2NC(=O)N[C@@H]21)NCCOCCOCCOCCOCCOCCOCCOCCOCCn1cc(-c2cccc(NC(=O)N3CCC4(CC3)NC(=O)N(c3ccccc3)C4=O)c2)nn1 [Compound I-27]
ACDP (CD16a negative THP1 cells)-normalized phagocytosis score [1]: B (a normalized phagocytosis score of 1.5-2.0)
Biotinylated Ligand ELISA-CD16a158F Binding (RLU) [2]: B (a relative luminescence value (RLU) of 10,000-100,000)
ACDP (primary monocytes)-normalized phagocytosis score [3]: A (a normalized phagocytosis score of >2.0)
Biotinylated Ligand ELISA-CD16a158V Binding (RLU) [4]: B (a relative luminescence value (RLU) of 10,000-100,000)

Kd [5]: 100 to 500 nM
Molecule: O=C(CCCC[C@@H]1SC[C@@H]2NC(=O)N[C@@H]21)NCCOCCOCCOCCOCCOCCOCCOCCOCCn1cc(-c2ccc(C(=O)N3CCC4(CC3)NC(=O)N(Cc3ccccc3)C4=O)cc2)nn1 [Compound I-28]
Biotinylated Ligand ELISA-CD16a158F Binding (RLU) [2]: B (a relative luminescence value (RLU) of 10,000-100,000)
Biotinylated Ligand ELISA-CD16a158V Binding (RLU) [4]: B (a relative luminescence value (RLU) of 10,000-100,000)

Kd [6]: 100 to 500 nM
Kd [5]: 100 to 500 nM
Molecule: COc1ccc(OC)c(N2CC(C(=O)Nc3ccc(-c4cn(CCCC(=O)O)nn4)cc3)CC2=O)c1 (stereo not shown) [Compound I-29]

Kd [5]: > 1000 nM
Molecule: O=C(CCCC[C@@H]1SC[C@@H]2NC(=O)N[C@@H]21)NCCOCCOCCOCCOCCOCCOCCOCCOCCC(=O)N1CCC(N2CC(=O)N(c3ccccc3)C2=O)CC1 [Compound I-30]

Biotin ELISA Results CD32b [8]: 3983 and 3476 and 6119
Biotin ELISA Results CD16a-158F [9]: 1915 and 592 and 1294
Biotin ELISA Results CD32a-H167 [10]: 3965 and 4173 and 4715
Biotin ELISA Results CD64 [11]: 68732 and 70002 and 48114
Biotin ELISA Results CD32a-R167 [12]: 4134 and 3245 and 4916
Biotin ELISA Results CD3ed [13]: 2134 and 3894 and 2741
Biotin ELISA Results CD16a-158V [14]: 2241 and 1940 and 2108
Kd [5]: 500 to 1000 nM
Molecule: O=C(CCCC[C@@H]1SC[C@@H]2NC(=O)N[C@@H]21)NCCOCCOCCOCCOCCOCCOCCOCCOCCn1cc(-c2ccc(NC(=O)C3CC(=O)N(c4cc(F)ccc4F)C3)cc2)nn1 (stereo partly shown) [Compound I-31]
Biotinylated Ligand ELISA-CD16a158F Binding (RLU) [2]: C (a relative luminescence value (RLU) of 1,000-10,000)
Biotinylated Ligand ELISA-CD16a158V Binding (RLU) [4]: C (a relative luminescence value (RLU) of 1,000-10,000)
Biotin ELISA Results No Protein [7]: 2129 and 3223 and 1542

Biotin ELISA Results CD32b [8]: 98 and 1052 and 486
Biotin ELISA Results CD16a-158F [9]: 2154 and −1155 and −213
Biotin ELISA Results CD32a-H167 [10]: 1138 and 43 and 249
Biotin ELISA Results CD64 [11]: 54153 and 79621 and 89966
Biotin ELISA Results CD32a-R167 [12]: 280 and −228 and −1215
Biotin ELISA Results CD3ed [13]: 1016 and −29 and −4459
Biotin ELISA Results CD16a-158V [14]: −378 and −180 and −282
Kd [6]: 1 to 100 nM
Molecule: O=C(CCCC[C@@H]1SC[C@@H]2NC(=O)N[C@@H]21)NCCOCCOCCOCCOCCOCCOCCOCCOCCn1cc(-c2ccc(NC(=O)C3CC(=O)N(c4ccccc4)C3)cc2)nn1 (stereo partly shown) [Compound I-36]
ACDP (CD16a negative THP1 cells)-normalized phagocytosis score [1]: B (a normalized phagocytosis score of 1.5-2.0)
Biotinylated Ligand ELISA-CD16a158F Binding (RLU) [2]: C (a relative luminescence value (RLU) of 1,000-10,000)
ACDP (primary monocytes)-normalized phagocytosis score [3]: B (a normalized phagocytosis score of 1.5-2.0)
Biotinylated Ligand ELISA-CD16a158V Binding (RLU) [4]: C (a relative luminescence value (RLU) of 1,000-10,000)
Biotin ELISA Results No Protein [7]: −764 and −989 and −154

Molecule: Rituximab (UDP-GalNAz labeled)
CD16a158V Normalized* Response (%) [15]: C (an ELISA result of 15-25% relative to Rituximab)
CD16a158F Normalized* Response (%) [16]: C (an ELISA result of 15-25% relative to Rituximab)
